The results in this text go back to US9499486B2, “Kinase inhibitor” (RESPIVERT LIMITED, priority 2014, dated 2016).

Data set [1] deals with T1, Syk (Homo sapiens (Human), UniProt P43405). Briefly: Syk enzyme inhibition, Z-LYTE FRET. The format is biochemical. Here is the method:
(§1) The enzyme inhibitory activities of the compound disclosed herein are determined by FRET using synthetic peptides labelled with both donor and acceptor fluorophores (Z-LYTE, Invitrogen Ltd., Paisley, UK).
The inhibitory activities of the compound of the invention against c-Src and Syk enzymes (Invitrogen), are evaluated in a similar fashion to that described hereinabove. The relevant enzyme (3000 ng/mL or 2000 ng/mL respectively, 2.5 μL) is incubated with the test compound (either 1 μg/mL, 0.1 μg/mL, 0.01 μg/mL, or 0.001 μg/mL, 2.5 μL each) for 2 hr at RT. The FRET peptides (8 μM, 2.5 μL), and appropriate ATP solutions (2.5 μL, 800 μM for c-Src, and 60 μM ATP for Syk) are then added to the enzymes/compound mixtures and the mixture incubated for 1 hr. Development reagent (protease, 5 μL) is added for 1 hr prior to detection in a fluorescence microplate reader (Varioskan® Flash, ThermoFisher Scientific).
(§2) In all cases, the site-specific protease cleaves non-phosphorylated peptide only and eliminates the FRET signal. Phosphorylation levels of each reaction are calculated using the ratio of coumarin emission (donor) over fluorescein emission (acceptor), for which high ratios indicate high phosphorylation and low ratios indicate low phosphorylation levels.

For a further data set, the system named is LPS-stimulated rats. Nature of the data set: Endotoxin-induced uveitis in rats. The format is in vivo, rat. Conditions: mean ± SEM; for IL-1β Anterior tissue / IL-1β Posterior tissue: LPS-stimulated rats; for Cell counts: aqueous humor. Here is the method:
Male, Lewis rats (6-8 weeks old, Charles River UK Limited) are housed in cages of 3 at 19-21° C. with a 12 h light/dark cycle (07:00/19:00) and fed a standard diet of rodent chow and water ad libitum. Non-fasted rats are weighed, individually identified on the tail with a permanent marker, and receive a single intravitreal administration into the right vitreous humor (5 μL dose volume) of 100 ng/animal of LPS (Escherichia coli 0111:B4 prepared in PBS, Sigma Aldrich, UK) using a 32-gauge needle. Untreated rats are injected with PBS. Test compound or vehicle (4% polyoxyl 40 stearate, 4% mannitol in PBS (pH 7.4)) are administered by the topical route onto the right eye (10 μL) of animals 1 hour prior to LPS, at the time of LPS administration, and 1, 2 and 4 hours post LPS administration. Before administration, the solution to be administered is sonicated to ensure a clear solution. 6 hours after LPS dosing, animals are euthanized by overdose with pentobarbitone (via cardiac puncture). Immediately after euthanasia, 10 μL of aqueous humor is collected from the right eye of the rats by puncture of the anterior chamber using a 32 gauge needle under a surgical microscope. The aqueous humor is diluted in 20 μL of PBS and total cell counts are measured immediately using a Countess automated cell counter (Invitrogen). Following collection of the aqueous humour, the right eye of each animal is enucleated and dissected into front (anterior) and back (posterior) sections around the lens. Each section is weighed and homogenised in 500 μL of sterile phosphate buffered saline followed by 20 minutes centrifugation at 12000 rpm at 4° C. The resulting supernatant is divided into 3 aliquots and stored at −80° C. until subsequent cytokine analysis by R&D DuoSet ELISA.

The target in data set [2] is T1, Syk. Nature of the data set: KINOMEscan dissociation constant, Syk. Format: binding. An excerpt: (§3) These assays may be conducted by DiscoverX (formerly Ambit; San Diego, Calif.).
The test system of data set [3] is Salmonella typhimurium, strains TA1535, TA1537, TA98 and TA100 and Escherichia coli, WP2 uvrA. Nature of the data set: Bacterial reverse mutation screen (plate incorporation).
Data set [4] addresses human ether a go-go (hERG) channel (Homo sapiens (Human), UniProt Q12809). Nature of the data set: hERG inhibition, IonWorks patch clamp electrophysiology. Format: cell-based. Conditions: IonWorks patch clamp. The protocol: (§4) The compound of the invention was tested for inhibition of the human ether a go-go (hERG) channel using IonWorks™ patch clamp electrophysiology at Essen Bioscience (Welwyn Garden City, England).

The target in the next data set is hERG (Homo sapiens (Human), UniProt Q12809). Described as above. The format is cell-based. The note with it: human; Top Concentration 3 μM. The protocol: as §4
Sequence of hERG (Q12809 whole entry): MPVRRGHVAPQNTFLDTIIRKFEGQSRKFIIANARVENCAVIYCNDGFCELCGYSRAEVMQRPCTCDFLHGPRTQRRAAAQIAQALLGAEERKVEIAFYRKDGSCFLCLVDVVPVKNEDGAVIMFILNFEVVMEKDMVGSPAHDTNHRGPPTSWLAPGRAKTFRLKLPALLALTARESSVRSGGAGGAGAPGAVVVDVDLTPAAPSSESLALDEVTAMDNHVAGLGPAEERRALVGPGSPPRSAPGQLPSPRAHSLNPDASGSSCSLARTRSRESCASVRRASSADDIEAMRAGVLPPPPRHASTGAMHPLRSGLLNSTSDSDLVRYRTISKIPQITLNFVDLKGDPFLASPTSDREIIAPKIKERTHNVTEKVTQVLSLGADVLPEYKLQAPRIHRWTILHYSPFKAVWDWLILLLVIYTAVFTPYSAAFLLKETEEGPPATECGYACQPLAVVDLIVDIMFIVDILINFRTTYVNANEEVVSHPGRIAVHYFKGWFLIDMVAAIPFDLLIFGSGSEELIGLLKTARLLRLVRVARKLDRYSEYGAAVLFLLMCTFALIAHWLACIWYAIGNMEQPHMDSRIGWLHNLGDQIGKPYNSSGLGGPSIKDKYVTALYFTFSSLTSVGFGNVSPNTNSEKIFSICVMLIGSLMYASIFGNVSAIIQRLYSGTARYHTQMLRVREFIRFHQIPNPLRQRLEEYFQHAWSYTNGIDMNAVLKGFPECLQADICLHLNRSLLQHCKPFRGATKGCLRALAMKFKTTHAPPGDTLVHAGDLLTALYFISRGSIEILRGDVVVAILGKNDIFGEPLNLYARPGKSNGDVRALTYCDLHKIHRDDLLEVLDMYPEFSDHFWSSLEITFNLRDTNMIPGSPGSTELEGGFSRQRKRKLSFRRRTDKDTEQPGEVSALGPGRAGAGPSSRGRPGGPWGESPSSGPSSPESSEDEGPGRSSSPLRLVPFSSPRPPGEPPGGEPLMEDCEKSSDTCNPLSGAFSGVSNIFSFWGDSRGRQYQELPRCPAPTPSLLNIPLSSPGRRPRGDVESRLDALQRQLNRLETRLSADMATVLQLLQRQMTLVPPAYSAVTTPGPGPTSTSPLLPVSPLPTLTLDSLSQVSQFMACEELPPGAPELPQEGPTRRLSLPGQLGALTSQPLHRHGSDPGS
The target in the next data set is c-Src (Homo sapiens (Human), UniProt P12931). Nature of the data set: c-Src enzyme inhibition, Z-LYTE FRET. The format is biochemical. The protocol: The relevant enzyme (3000 ng/mL or 2000 ng/mL respectively, 2.5 μL) is incubated with the test compound (either 1 μg/mL, 0.1 μg/mL, 0.01 μg/mL, or 0.001 μg/mL, 2.5 μL each) for 2 hr at RT. The FRET peptides (8 μM, 2.5 μL), and appropriate ATP solutions (2.5 μL, 800 μM for c-Src, and 60 μM ATP for Syk) are then added to the enzymes/compound mixtures and the mixture incubated for 1 hr. Development reagent (protease, 5 μL) is added for 1 hr prior to detection in a fluorescence microplate reader (Varioskan® Flash, ThermoFisher Scientific).
Sequence of c-Src (P12931 whole entry, looked up): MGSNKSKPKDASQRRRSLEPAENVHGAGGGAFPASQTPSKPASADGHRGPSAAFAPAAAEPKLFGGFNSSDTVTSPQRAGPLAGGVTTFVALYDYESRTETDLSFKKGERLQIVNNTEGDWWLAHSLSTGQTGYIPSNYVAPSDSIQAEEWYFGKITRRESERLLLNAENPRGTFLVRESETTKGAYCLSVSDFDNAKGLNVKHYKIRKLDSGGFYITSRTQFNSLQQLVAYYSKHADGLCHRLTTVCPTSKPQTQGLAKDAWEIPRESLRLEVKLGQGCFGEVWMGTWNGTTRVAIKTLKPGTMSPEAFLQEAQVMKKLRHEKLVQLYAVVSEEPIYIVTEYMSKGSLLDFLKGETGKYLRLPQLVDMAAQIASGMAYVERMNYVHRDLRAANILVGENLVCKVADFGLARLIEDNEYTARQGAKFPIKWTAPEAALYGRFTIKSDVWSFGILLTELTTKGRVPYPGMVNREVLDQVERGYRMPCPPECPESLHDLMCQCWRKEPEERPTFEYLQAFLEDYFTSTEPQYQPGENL
as §2

The target of another data set is B-Raf (V600E) (Homo sapiens (Human), UniProt P15056, V600E). Nature of the data set: KINOMEscan binding of B-Raf (V600E) to standard ligand.
Sequence of B-Raf (V600E) (P15056 whole entry V600E): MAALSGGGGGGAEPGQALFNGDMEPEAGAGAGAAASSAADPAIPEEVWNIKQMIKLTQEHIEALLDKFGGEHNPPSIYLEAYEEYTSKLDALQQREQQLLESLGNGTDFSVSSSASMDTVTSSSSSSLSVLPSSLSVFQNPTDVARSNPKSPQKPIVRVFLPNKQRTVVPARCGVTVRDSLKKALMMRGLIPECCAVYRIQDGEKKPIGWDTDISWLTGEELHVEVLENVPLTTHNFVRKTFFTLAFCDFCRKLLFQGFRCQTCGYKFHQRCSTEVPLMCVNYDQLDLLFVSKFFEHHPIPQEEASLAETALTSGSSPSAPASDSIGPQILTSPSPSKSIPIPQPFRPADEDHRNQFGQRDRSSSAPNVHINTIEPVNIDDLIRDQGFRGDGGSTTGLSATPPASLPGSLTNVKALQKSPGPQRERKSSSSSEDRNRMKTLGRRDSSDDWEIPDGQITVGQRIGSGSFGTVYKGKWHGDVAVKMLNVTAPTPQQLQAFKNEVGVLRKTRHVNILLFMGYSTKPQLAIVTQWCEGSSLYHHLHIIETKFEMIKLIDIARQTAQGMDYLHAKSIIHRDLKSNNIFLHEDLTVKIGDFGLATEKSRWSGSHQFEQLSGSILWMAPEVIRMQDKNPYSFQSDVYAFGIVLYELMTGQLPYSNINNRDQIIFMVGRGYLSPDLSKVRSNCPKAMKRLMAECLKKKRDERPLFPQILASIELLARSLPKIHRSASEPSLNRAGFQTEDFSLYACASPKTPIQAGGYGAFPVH
From the text: as §3

In another data set the target is GSK3α (Homo sapiens (Human), UniProt P49840). Nature of the data set: GSK3α enzyme inhibition (Method 2), Z-LYTE FRET. Format: biochemical. Here is the method: as §1
Sequence of GSK3α (P49840 whole entry, canonical isoform): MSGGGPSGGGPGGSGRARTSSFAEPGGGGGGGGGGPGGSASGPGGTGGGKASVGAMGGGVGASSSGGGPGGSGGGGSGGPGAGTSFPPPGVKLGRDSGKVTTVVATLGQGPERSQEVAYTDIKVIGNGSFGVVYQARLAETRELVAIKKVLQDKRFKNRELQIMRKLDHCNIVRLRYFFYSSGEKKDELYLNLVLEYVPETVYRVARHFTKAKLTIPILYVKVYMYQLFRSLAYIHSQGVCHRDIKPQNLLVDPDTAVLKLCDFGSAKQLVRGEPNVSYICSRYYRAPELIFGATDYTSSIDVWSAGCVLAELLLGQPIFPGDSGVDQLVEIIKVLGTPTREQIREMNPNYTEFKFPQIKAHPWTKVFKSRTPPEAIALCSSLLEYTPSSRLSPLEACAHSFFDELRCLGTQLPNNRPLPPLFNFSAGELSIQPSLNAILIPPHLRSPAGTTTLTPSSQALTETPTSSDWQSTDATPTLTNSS
The inhibitory activities of the compound of the invention against the GSK 3α enzyme isoform (Invitrogen), are evaluated by determining the level of activation/phosphorylation of the target peptide. The GSK3-α protein (500 ng/mL, 2.5 μL) is mixed with the test compound (2.5 μL at either 4 μg/mL, 0.4 μg/mL, 0.04 μg/mL, or 0.004 μg/mL) for 2 hr at RT. The FRET peptide (8 μM, 2.5 μL), which is a phosphorylation target for GSK3α, and ATP (40 μM, 2.5 μL) are then added to the enzyme/compound mixture and the resulting mixture incubated for 1 hr. Development reagent (protease, 5 μL) is added for 1 hr prior to detection in a fluorescence microplate reader (Varioskan® Flash, ThermoFisher Scientific).
In all cases, the site-specific protease cleaves non-phosphorylated peptide only and eliminates the FRET signal. Phosphorylation levels of each reaction are calculated using the ratio of coumarin emission (donor) over fluorescein emission (acceptor), for which high ratios indicate high phosphorylation and low ratios indicate low phosphorylation levels. […]

Sequence of human ether a go-go (hERG) channel (Q12809 whole entry): as the sequence (Q12809 whole entry) above

`COc1cc(Nc2cc(Oc3ccc(NC(=O)Nc4cc(C(C)(C)C)cc(NS(C)(=O)=O)c4OC)c4ccccc34)ccn2)ccc1C(=O)O` [Example 1, 4-((4-((4-(3-(5-(tert-Butyl)-2-methoxy-3-(methylsulfonamido)phenyl)ureido)naphthalen-1-yl)oxy)pyridin-2-yl)amino)-2-methoxybenzoic acid]: the IC50 was 5 nM on Syk [1], greater than 3300 nM in [4], 14 nM against c-Src and 115 nM against GSK3α. The “IL-1β Anterior tissue” value was 1558.1 ± 145.7 pg/mL with LPS-stimulated rats (0.001 mg/mL topical), 980.0 ± 110.8 pg/mL in the data set on LPS-stimulated rats (0.01 mg/mL topical), 791.2 ± 131.9 pg/mL with LPS-stimulated rats (0.1 mg/mL topical) and 367.3 ± 100.4 pg/mL in the data set with LPS-stimulated rats (1 mg/mL topical). The “IL-1β Posterior tissue” value worked out at 867.9 ± 120.8 pg/mL in the data set with LPS-stimulated rats (0.001 mg/mL topical), 740.5 ± 56.2 pg/mL in the data set on LPS-stimulated rats (0.01 mg/mL topical), 327.4 ± 61.4 pg/mL in the data set with LPS-stimulated rats (0.1 mg/mL topical) and 188.1 ± 54.7 pg/mL with LPS-stimulated rats (1 mg/mL topical). The Cell counts is recorded as 63.6 ± 7.0 ×10^5/mL in the data set on LPS-stimulated rats (0.001 mg/mL topical), 43.5 ± 6.3 ×10^5/mL with LPS-stimulated rats (0.01 mg/mL topical), 30.4 ± 6.7 ×10^5/mL in the data set with LPS-stimulated rats (0.1 mg/mL topical) and 21.9 ± 5.0 ×10^5/mL in the data set with LPS-stimulated rats (1 mg/mL topical). At Syk [2], this compound returned a Kd of 7.1 nM. In addition, the mutagenic effects result in data set [3] (15-1500 μg/plate, all strains, presence and absence of S-9 mix) was “absence of any mutagenic effects”. Besides, the “toxicity of the test item to the bacteria” value in data set [3] (500 and 1500 μg/plate in TA98, 1500 μg/plate in TA1535, presence of S-9 mix) is “reduction in the mean colony count”. The “limit of solubility in mutation test” value in data set [3] (all strains, presence and absence of S-9 mix, plate incorporation) stood at 1500 μg/plate. In data set [3] (any strain, any dose level, presence or absence of S-9 mix), the “increases in revertant numbers” value is on record as “no dose-related or statistically significant increases”. The inhibition at 3 µM at hERG was -4%. Also, the “effect on the binding of B-Raf (V600E) to its standard ligand” value at B-Raf (V600E) is “did not have any significant effect”.

As a reminder, the IC50 is the concentration at which inhibition is half-maximal. High values mean a need for much substance, low ones inhibition by little substance. Broadly, the Kd is the constant that tells how readily two partners part at equilibrium. The term inhibition denotes the drop in the measured response relative to a control, in per cent.
